Patent US9096580B2 (priority 2012, dated 2015)
pEC50, pIC50: −log10 of the molar value.

Columns and labels:
HCV [1] = conditions: cited from earlier work
[2] = biological target: HCV NS5B RdRp, genotype 1b (Hepatitis C virus genotype 1b (isolate Con1) (HCV), UniProt Q9WMX2); assay: HCV NS5B RdRp enzyme assay; assay type: biochemical, HCV genotype 1b
Procedure: HCV NS5B RdRp Cloning, Expression, and Purification.
The cDNA encoding the NS5B protein of HCV, genotype 1b, was cloned into the pET21a expression vector. The protein was expressed with an 18 amino acid C-terminal truncation to enhance the solubility. The E. coli competent cell line BL21(DE3) was used for expression of the protein. Cultures were grown at 37° C. for ˜4 hours until the cultures reached an optical density of 2.0 at 600 nm. The cultures were cooled to 20° C. and induced with 1 mM IPTG. Fresh ampicillin was added to a final concentration of 50 μg/mL and the cells were grown overnight at 20° C.
The lysis buffer consisted of 20 mM Tris-HCl, pH 7.4, 500 mM NaCl, 0.5% triton X-100, 1 mM DTT, 1 mM EDTA, 20% glycerol, 0.5 mg/mL lysozyme, 10 mM MgCl2, 15 ug/mL deoxyribonuclease I, and Complete TM protease inhibitor tablets (Roche). After addition of the lysis buffer, frozen cell pellets were resuspended using a tissue homogenizer. […]
After incubating for at least 15 minutes, plates were read on an Amersham LEADseeker multimodality imaging system.
IC50 values for compounds were determined using ten different [I]. IC50 values were calculated from the inhibition using the four-parameter logistic formula y=A+((B−A)/(1+((C/x)^D))), where A and B denote minimal and maximal % inhibition, respectively, C is the IC50, D is hill slope and x represents compound concentration.

[3] = test system: genotype 1b HCV replicon in Huh-7 cells; assay: HCV replicon luciferase assay; assay type: cell-based, HCV genotype 1b; conditions: Hepatitis C virus, 72 h; Huh-7 genotype 1b replicon, Renilla luciferase, 3 days incubation
Procedure: The cell lines used to evaluate compounds consist of a human hepatocyte derived cell line (Huh-7) that constitutively expresses a genotype 1b HCV replicon containing a Renilla luciferase reporter gene. These cells were maintained in Dulbecco's modified Eagle medium (DMEM) containing 10% FBS, 100 U/mL penicillin/streptomycin and 1.0 mg/mL G418.
HCV Replicon Luciferase Assay.
To evaluate compound efficacy, titrated compounds were transferred to sterile 384-well tissue culture treated plates, and the plates were seeded with HCV replicon cells (50 μL at a density of 2.4×10^3 cells/well) in DMEM containing 4% FBS (final DMSO concentration at 0.5%). After 3 days incubation at 37° C., cells were analyzed for Renilla Luciferase activity using the EnduRen substrate (Promega cat #E6485) according to the manufacturer's directions. Briefly, the EnduRen substrate was diluted in DMEM and then added to the plates to a final concentration of 7.5 μM. The plates were incubated for at least 1 h at 37° C. then read on a Viewlux Imager (PerkinElmer) using a luminescence program. The 50% effective concentration (EC50) was calculated using the four-parameter logistic formula noted above.

HCV [4] = conditions: combination therapy; cited from earlier work

Sequence of HCV NS5B RdRp, genotype 1b (Q9WMX2 2420-2992): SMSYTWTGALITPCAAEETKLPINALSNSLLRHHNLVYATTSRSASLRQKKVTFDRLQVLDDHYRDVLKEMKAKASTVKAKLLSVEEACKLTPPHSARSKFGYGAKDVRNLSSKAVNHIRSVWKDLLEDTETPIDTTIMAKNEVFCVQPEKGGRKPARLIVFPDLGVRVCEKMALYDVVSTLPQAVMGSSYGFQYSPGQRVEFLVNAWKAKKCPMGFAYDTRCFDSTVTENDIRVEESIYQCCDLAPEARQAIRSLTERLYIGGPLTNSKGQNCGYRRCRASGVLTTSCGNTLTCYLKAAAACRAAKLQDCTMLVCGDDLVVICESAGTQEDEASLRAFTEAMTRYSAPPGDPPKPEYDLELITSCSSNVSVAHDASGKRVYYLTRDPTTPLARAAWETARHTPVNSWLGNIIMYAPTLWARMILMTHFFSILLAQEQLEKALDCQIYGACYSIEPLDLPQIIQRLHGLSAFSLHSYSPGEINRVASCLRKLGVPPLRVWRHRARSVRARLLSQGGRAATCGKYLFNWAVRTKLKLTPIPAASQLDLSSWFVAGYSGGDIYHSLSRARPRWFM

Compound: CNC(=O)c1c(-c2ccc(F)cc2)oc2cc(N(CCO)S(C)(=O)=O)c(C3CC3)cc12 [HCV-796]
- toxicity during extended dosing (HCV [1]; extended dosing of the combination regimens with interferon and ribavirin): hepatic toxicity
- HCV RNA levels in patients (HCV [1]; patients, single agent: transient decrease then rebound): reduce HCV RNA levels

Compound: CNC(=O)c1c(-c2ccc(F)cc2)oc2ccc(-c3cc(C(=O)NC4(c5ncccn5)CNC4)cc(F)c3C)c(F)c12
- pIC50 [2]: 6.48
- pEC50 [3]: 6.41

Compound: CNC(=O)c1c(-c2ccc(F)cc2)oc2ccc(-c3cc(C(=O)NC4(c5ncccn5)CN(C)C4)cc(F)c3C)c(F)c12 [4-fluoro-5-(3-fluoro-2-methyl-5-(1-methyl-3-(pyrimidin-2-yl)azetidin-3-ylcarbamoyl)phenyl)-2-(4-fluorophenyl)-N-methylbenzofuran-3-carboxamide]
- pEC50 [3]: 6.09

Compound: CNC(=O)c1c(-c2ccc(F)cc2)oc2ccc(-c3cc(C(=O)NC4(c5ncccn5)CN(C)C4)c(OC)cc3C)c(F)c12
- pEC50 [3]: 5.92

Compound: CNC(=O)c1c(-c2ccc(F)cc2)oc2ccc(-c3cc(C(=O)NC4(c5ncccn5)CNC4)ccc3C)c(F)c12 [4-fluoro-2-(4-fluorophenyl)-N-methyl-5-(2-methyl-5-(3-(pyrimidin-2-yl)azetidin-3-ylcarbamoyl)phenyl)benzofuran-3-carboxamide]
- pEC50 [3]: 5.36

Compound: CNC(=O)c1c(-c2ccc(F)cc2)oc2ccc(-c3cc(C(=O)NC4(c5ncccn5)CNC4)c(OC)cc3C)c(F)c12
- pEC50 [3]: 6.05

Compound: CNC(=O)c1c(-c2ccc(F)cc2)oc2ccc(-c3cc(C(=O)NC4(c5ncccn5)CN(C)C4)ccc3C)c(F)c12
- pIC50 [2]: 6.11
- pEC50 [3]: 5.61

Compound: alpha-interferon and ribavirin
- sustained efficacy, share of patients (HCV [4]): 40%
